Assay [1] has as its target Endoplasmic reticulum chaperone BiP (Homo sapiens) (UniProt P11021). Nature of the assay: Binding affinity to human GRP78 at 1 uM measured after 30 mins by UF-ASMS analysis relative to control.
In assay [2] the test system is HUVEC. Nature of the assay: Antiangiogenic activity against VEGF-stimulated HUVEC assessed as reduction in cell viability measured after 48 hrs by MTT assay. The assay is classed as functional, cell-based. The note with it: Homo sapiens.
Assay [3] deals with HUVEC. Kind of assay: Antiangiogenic activity against VEGF-stimulated HUVEC assessed as reduction in cell viability at 100 uM measured after 48 hrs by MTT assay relative to control. It is filed as functional. (In general: Tetrazolium assays rely on reduction of a dye to a coloured formazan, in cell work by metabolically active cells.)
Assay [4] has as its system HUVEC. Nature of the assay: Antiangiogenic activity against VEGF-stimulated HUVEC assessed as reduction in cell viability at 10 uM measured after 48 hrs by MTT assay relative to control. It is filed as functional.
Assay [5] has as its system 786-0. Kind of assay: Cytotoxicity against human 786-0 cells assessed reduction in cell viability after 48 hrs by MTT assay. It is filed as functional.
Assay [6] concerns the target Endoplasmic reticulum chaperone BiP (Homo sapiens) (UniProt P11021). The note with it: dose 500.0 µM.
Description: Binding affinity to N-terminal His-tagged GRP78 (unknown origin) assessed as change in melting temperature at 500 uM by differential scanning fluorimetry
The test system of assay [7] is 786-0. Nature of the assay: Cytotoxicity against human 786-0 cells assessed reduction in cell viability at 10 uM after 48 hrs by MTT assay. The assay is classed as functional, cell-based.
The subject of assay [8] is 786-0. Kind of assay: Cytotoxicity against human 786-0 cells assessed reduction in cell viability at 100 uM after 48 hrs by MTT assay. The assay is classed as functional, cell-based.
The subject of assay [9] is HUVEC. Kind of assay: Antiangiogenic activity against VEGF-stimulated HUVEC assessed as reduction in cell viability up to 100 uM measured after 48 hrs by MTT assay. The note with it: Homo sapiens, dose microM <=100, time 48.0 hrs. The assay is classed as functional, cell-based.

Consider 27 compounds from ChEMBL document CHEMBL4680232, “Discovery of small molecules targeting GRP78 for antiangiogenic and anticancer therapy” (Eur J Med Chem, 2020).

Molecules are shown by their SMILES. The source made the active and inactive calls. The rule behind the calls is not given here.

Chain of Endoplasmic reticulum chaperone BiP (Homo sapiens) (P11021 whole entry): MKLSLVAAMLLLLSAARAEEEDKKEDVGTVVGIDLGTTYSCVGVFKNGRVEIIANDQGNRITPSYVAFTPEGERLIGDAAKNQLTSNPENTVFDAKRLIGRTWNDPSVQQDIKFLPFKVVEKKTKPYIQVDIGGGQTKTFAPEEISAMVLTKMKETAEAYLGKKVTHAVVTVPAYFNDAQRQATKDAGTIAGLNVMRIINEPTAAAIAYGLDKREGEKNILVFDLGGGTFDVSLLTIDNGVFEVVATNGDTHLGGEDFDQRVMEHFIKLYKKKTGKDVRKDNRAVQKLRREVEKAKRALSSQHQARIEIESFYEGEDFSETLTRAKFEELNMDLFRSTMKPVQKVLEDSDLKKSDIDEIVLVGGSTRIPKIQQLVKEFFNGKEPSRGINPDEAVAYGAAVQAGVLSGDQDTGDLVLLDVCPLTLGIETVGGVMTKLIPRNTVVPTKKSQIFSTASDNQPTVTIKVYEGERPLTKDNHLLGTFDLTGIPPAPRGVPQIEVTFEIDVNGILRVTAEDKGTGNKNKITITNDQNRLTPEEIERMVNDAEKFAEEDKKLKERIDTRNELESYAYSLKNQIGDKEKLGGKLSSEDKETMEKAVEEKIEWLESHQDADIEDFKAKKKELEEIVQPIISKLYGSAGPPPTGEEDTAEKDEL

In [1], `CCOS(=O)(=O)/C=C/c1ccc(OC)c(OCCc2nc(-c3ccccc3)sc2C)c1` displayed an RBA of 129%.
One may read the CC50 as the concentration at which the toxic effect on the cells reaches its halfway point. Regarding `CC(C)CNC(=O)c1c(-c2ccc(COC(=O)c3cc(O)cc(O)c3)cc2)oc2ccccc12`, the CC50 with HUVEC [2] (time 48 hrs) was 100 µM. Besides, in the assay on HUVEC [3] (Homo sapiens), the outcome was Active.
`CCCCNC(=O)c1c(-c2ccc(COC(=O)c3ccc(O)cc3)cc2)oc2ccccc12`: in the assay on HUVEC [2] (time 48 hrs), the half-maximal cytotoxic concentration (CC50) turned out to be 100 µM. The outcome in the assay on HUVEC [3] (Homo sapiens) was Active.
On to `CC(C)CNC(=O)c1c(-c2ccc(COC(=O)c3ccc(N(C)C)cc3)cc2)oc2ccccc12`, for which the cytotoxic concentration (CC50) in the assay on HUVEC [2] (time 48 hrs) turned out to be 100 µM. The RBA in assay [1] was determined as 54%. In addition, the Activity in the assay with HUVEC [3] is reported as 50%. Besides, in the assay with HUVEC [4] (Homo sapiens), the result was inactive.
On to `Nc1ccc2[nH]c(=O)c(=O)[nH]c2c1`, for which, in [1], the RBA came to 119%.
On to `CC(C)CNC(=O)c1cccc2nc(-c3ccc(COC(=O)Cc4ccc(O)cc4)cc3)oc12`, for which the CC50 in the assay with HUVEC [2] (time 48 hrs) and with 786-0 [5] was 10 µM each time. Moreover, the result in the assay on HUVEC [3] (Homo sapiens) was Active.
As to `CC(C)CNC(=O)c1c(-c2ccc(COc3ccc(CO)cc3)cc2)oc2ccccc12`, the cytotoxic concentration (CC50) with HUVEC [2] (time 48 hrs) and in the assay with 786-0 [5] was 10 µM each time. The result with HUVEC [3] (Homo sapiens) was Active.
Consider `CC(C)CNC(=O)c1c(-c2ccc(COC(=O)c3ccc(O)cc3)cc2)oc2ccccc12`, for which the CC50 with HUVEC [2] (time 48 hrs) amounted to 100 µM. The outcome in the assay with HUVEC [3] (Homo sapiens) was Active.
In the case of `O=c1[nH]c2ccc(OCCc3ccccc3)nc2[nH]c1=O`, the RBA in [1] is 536%.
In assay [1], `O=C(/C=C/c1ccc(O)c(O)c1)OCCc1ccccc1` came in with an RBA of 98%.
The same measure, in the same setting: in the case of `O=c1[nH]c2nccc(OCCc3ccccc3)c2[nH]c1=O` it was 1000%; in that of `Cc1oc(-c2ccccc2)nc1CCOc1cccc2oc(CCC(=O)O)nc12`, 160%.
For `C=CCc1ccc(O)c(-c2ccc(O)c(CC=C)c2)c1`, in the assay with HUVEC [3] (Homo sapiens), the outcome was Active.
`COc1ccc(OC)c(/C=C(\C#N)c2ccc(-c3oc4ccccc4c3C(=O)NCC(C)C)cc2)c1`: in the assay with HUVEC [2] (time 48 hrs), the 50% cytotoxic concentration (CC50) is 100 µM.
By EC50 is commonly meant the concentration needed to bring the measured effect to its halfway point. For orientation: ΔTm means the change in melting temperature against a reference sample. With `COc1cc(OC)cc(C(=O)OCc2ccc(-c3oc4ccccc4c3C(=O)NCC(C)C)cc2)c1`, the half-maximal effective concentration (EC50) in the assay with HUVEC [2] (48 h) turned out to be 1.51 µM. Besides, the CC50 in the assay with HUVEC [2] (time 48 hrs) and with 786-0 [5] was 10 µM in each case. Also, the RBA in assay [1] amounted to 143%. Besides, in the assay with HUVEC [4], the Activity is 50%. Further, the ΔTm in [6] was 2.65 °C.
For the compound `CC(C)CNC(=O)c1c(-c2ccc(COC(=O)Cc3ccc(O)cc3)cc2)oc2ccccc12`, the CC50 in the assay on HUVEC [2] (time 48 hrs) was 100 µM. Also, the outcome with HUVEC [3] (Homo sapiens) was Active.
As to `COC(=O)c1c(-c2ccc(COC(=O)c3cc(O)cc(O)c3)cc2)oc2ccccc12`, the CC50 in the assay on HUVEC [2] (time 48 hrs) is 10 µM. For the same compound, the outcome in the assay on HUVEC [3] (Homo sapiens) and in the assay with 786-0 [8] was Active. For the same compound, the outcome in the assay on 786-0 [7] was inactive. Besides, the ΔTm in [6] is -0.76 °C.
With `O=C(O[C@@H]1Cc2c(O)cc(O)cc2O[C@@H]1c1cc(O)c(O)c(O)c1)c1cc(O)c(O)c(O)c1`, the RBA in assay [1] turned out to be 271%. For the same compound, in the assay with HUVEC [9], the result was inactive.
For the compound `CC(C)CNC(=O)c1c(-c2ccc(CO)cc2)oc2ccccc12`, the CC50 entry in the assay with HUVEC [2] is “inactive”. This compound also showed an RBA in assay [1] of 180%. In the assay on HUVEC [9], the result was inactive.
Take `CC(C)CNC(=O)c1c(-c2ccc(COC(=O)/C=C/c3ccc(O)cc3)cc2)oc2ccccc12`: the CC50 in the assay with HUVEC [2] (time 48 hrs) turned out to be 100 µM. For the same compound, the outcome in the assay with HUVEC [3] (Homo sapiens) was Active.
Consider `O=C(/C=C/c1ccc(O)c(O)c1)OCCc1ccc(Br)cc1`, for which the RBA in assay [1] worked out at 90%. In addition, the Activity in the assay on HUVEC [3] was found to be 50%. Moreover, the outcome in the assay with HUVEC [4] (Homo sapiens) was inactive.
Regarding `CC(C)CNC(=O)c1c(-c2ccc(COC(=O)c3ccccc3)cc2)oc2ccccc12`, the CC50 in the assay on HUVEC [2] (time 48 hrs) was found to be 100 µM. For the same compound, the result in the assay with HUVEC [3] (Homo sapiens) was Active.
In the case of `COc1cc(OC)cc(C(=O)OCc2ccc(-c3nc4cccc(C(=O)NCC(C)C)c4o3)cc2)c1`, in the assay on HUVEC [2], the CC50 result was “inactive”.
With `Nc1ncnc2c1ncn2[C@@H]1O[C@H](COP(=O)(O)OP(=O)(O)OP(=O)(O)O)[C@@H](O)[C@H]1O`, the ΔTm in assay [6] stood at 4.65 °C.
Consider `COc1ccc(/C=C/C(=O)OCCc2ccccc2)cc1`, for which the RBA in [1] came out at 64%.
For the compound `CC(=O)Nc1ccc(OCc2ccc(-c3oc4ccccc4c3C(=O)NCC(C)C)cc2)cc1`, the cytotoxic concentration (CC50) in the assay on HUVEC [2] (time 48 hrs) turned out to be 10 µM. The compound also had an RBA in assay [1] of 61%. Moreover, the Activity with HUVEC [4] worked out at 50%.
In the same order, the values of `CC(C)CNC(=O)c1c(-c2ccc(COC(=O)c3ccccc3O)cc2)oc2ccccc12` are 10 µM, 501% and 50%.
